How the values were obtained:
Experiment in all cases: relative viability (nuclei count vs DMSO), 5 days (fraction); higher = more cells survive
Everolimus + Phenformin = compound: CO[C@H]1C[C@@H]2CC[C@@H](C)[C@@](O)(O2)C(=O)C(=O)N2CCCC[C@H]2C(=O)O[C@H]([C@H](C)C[C@@H]2CC[C@@H](OCCO)[C@H](OC)C2)CC(=O)[C@H](C)/C=C(\C)[C@@H](O)[C@@H](OC)C(=O)[C@H](C)C[C@H](C)/C=C/C=C/C=C/1C [Everolimus] + N=C(N)NC(=N)NCCc1ccccc1 [Phenformin] (partner 250 µM)
Summary of the method: (§1)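 Values are medians from duplicate plates. Each reflects relative viability, defined as the nuclei count of treated wells over that of vehicle wells. Lung cancer cell lines in 1536-well plates were pin-tool dosed one day after seeding with one drug alone or with a fixed anchor-drug dose plus five library-drug doses (not always all listed) in √10 steps, then fixed, stained and imaged at 4× after 5 days.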

Everolimus + OSI-027 = compound: CO[C@H]1C[C@@H]2CC[C@@H](C)[C@@](O)(O2)C(=O)C(=O)N2CCCC[C@H]2C(=O)O[C@H]([C@H](C)C[C@@H]2CC[C@@H](OCCO)[C@H](OC)C2)CC(=O)[C@H](C)/C=C(\C)[C@@H](O)[C@@H](OC)C(=O)[C@H](C)C[C@H](C)/C=C/C=C/C=C/1C [Everolimus] + COc1cccc2cc(-c3nc([C@H]4CC[C@H](C(=O)O)CC4)n4ncnc(N)c34)[nH]c12 [OSI-027] (partner 0.5 µM)
Summary of the method: as §1

Everolimus + Trametinib = compound: CO[C@H]1C[C@@H]2CC[C@@H](C)[C@@](O)(O2)C(=O)C(=O)N2CCCC[C@H]2C(=O)O[C@H]([C@H](C)C[C@@H]2CC[C@@H](OCCO)[C@H](OC)C2)CC(=O)[C@H](C)/C=C(\C)[C@@H](O)[C@@H](OC)C(=O)[C@H](C)C[C@H](C)/C=C/C=C/C=C/1C [Everolimus] + CC(=O)Nc1cccc(-n2c(=O)n(C3CC3)c(=O)c3c(Nc4ccc(I)cc4F)n(C)c(=O)c(C)c32)c1 [Trametinib] (partner 0.02 µM)
Summary of the method: as §1

Everolimus + Crizotinib = compound: CO[C@H]1C[C@@H]2CC[C@@H](C)[C@@](O)(O2)C(=O)C(=O)N2CCCC[C@H]2C(=O)O[C@H]([C@H](C)C[C@@H]2CC[C@@H](OCCO)[C@H](OC)C2)CC(=O)[C@H](C)/C=C(\C)[C@@H](O)[C@@H](OC)C(=O)[C@H](C)C[C@H](C)/C=C/C=C/C=C/1C [Everolimus] + C[C@@H](Oc1cc(-c2cnn(C3CCNCC3)c2)cnc1N)c1c(Cl)ccc(F)c1Cl [Crizotinib] (partner 1 µM)
Summary of the method: as §1

| Cell Line | relative viability (Everolimus + Phenformin; first compound 0.01 µM) | relative viability (Everolimus + Phenformin; first compound 0.03162 µM) | relative viability (Everolimus + Phenformin; first compound 0.1 µM) | relative viability (Everolimus + Phenformin; first compound 0.3162 µM) | relative viability (Everolimus + Phenformin; first compound 1 µM) | relative viability (Everolimus + OSI-027; first compound 0.01 µM) | relative viability (Everolimus + OSI-027; first compound 0.03162 µM) | relative viability (Everolimus + OSI-027; first compound 0.1 µM) | relative viability (Everolimus + OSI-027; first compound 0.3162 µM) | relative viability (Everolimus + OSI-027; first compound 1 µM) | relative viability (Everolimus + Trametinib; first compound 0.01 µM) | relative viability (Everolimus + Trametinib; first compound 0.03162 µM) | relative viability (Everolimus + Trametinib; first compound 0.1 µM) | relative viability (Everolimus + Trametinib; first compound 0.3162 µM) | relative viability (Everolimus + Trametinib; first compound 1 µM) | relative viability (Everolimus + Crizotinib; first compound 0.01 µM) | relative viability (Everolimus + Crizotinib; first compound 0.03162 µM) | relative viability (Everolimus + Crizotinib; first compound 0.1 µM) | relative viability (Everolimus + Crizotinib; first compound 0.3162 µM) | relative viability (Everolimus + Crizotinib; first compound 1 µM) |
| --- | --- | --- | --- | --- | --- | --- | --- | --- | --- | --- | --- | --- | --- | --- | --- | --- | --- | --- | --- | --- |
| NCI-H647 | 0.317 | 0.395 | 0.338 | 0.36 | 0.537 | 0.363 | 0.401 | 0.343 | 0.449 | 0.489 | 0.258 | 0.318 | 0.288 | 0.252 | 0.293 | 0.582 | 0.771 | 0.596 | 0.582 | 0.709 |
| NCI-H650 | 0.423 |  | 0.431 | 0.364 | 0.294 | 0.372 |  | 0.446 | 0.392 | 0.363 | 1 | 0.687 | 0.664 | 0.593 | 0.497 | 0.672 |  | 0.582 | 0.588 | 0.428 |
| NCI-H661 | 0.253 | 0.259 | 0.258 | 0.271 | 0.281 | 0.471 | 0.44 | 0.433 | 0.4 | 0.511 | 0.407 | 0.376 | 0.343 | 0.409 | 0.318 | 1.1 | 1.07 | 0.977 | 0.837 | 0.814 |
| NCI-H727 | 0.462 | 0.457 |  | 0.485 | 0.368 | 0.425 | 0.392 | 0.467 | 0.345 | 0.444 | 0.433 | 0.385 | 0.337 | 0.363 | 0.342 | 0.47 | 0.443 | 0.553 | 0.49 | 0.496 |
| NCI-H838 | 0.331 | 0.355 | 0.267 | 0.313 | 0.363 | 0.262 | 0.252 | 0.233 | 0.259 | 0.334 | 0.288 | 0.267 | 0.278 | 0.263 | 0.28 | 0.581 | 0.548 | 0.416 | 0.525 | 0.357 |
| NCI-H1355 | 0.394 | 0.364 | 0.335 | 0.332 | 0.345 | 0.281 | 0.258 | 0.231 | 0.299 | 0.241 | 0.244 | 0.24 | 0.215 | 0.263 | 0.244 | 0.524 | 0.462 | 0.46 | 0.426 | 0.438 |
| NCI-H1437 | 0.557 | 0.282 | 0.293 | 0.299 | 0.29 | 0.379 | 0.363 | 0.344 | 0.365 | 0.487 | 0.383 | 0.348 | 0.374 | 0.313 | 0.249 | 0.969 | 0.903 | 0.782 | 0.873 | 0.648 |
| NCI-H1650 | 0.36 | 0.372 | 0.46 | 0.392 | 0.417 | 0.489 | 0.444 | 0.468 | 0.484 | 0.574 | 0.48 | 0.489 | 0.437 | 0.481 | 0.58 | 0.922 | 1.06 | 0.918 | 1 | 0.719 |
| NCI-H1651 | 0.284 | 0.297 | 0.255 | 0.265 | 0.4 | 0.411 | 0.439 | 0.384 | 0.41 | 0.58 | 0.774 | 0.657 | 0.605 | 0.592 | 0.538 | 0.846 | 0.786 | 0.735 | 0.708 | 0.566 |
| NCI-H1666 | 0.555 | 0.575 | 0.617 | 0.577 | 0.539 | 0.722 | 0.725 | 0.719 | 0.811 | 0.722 | 0.832 | 0.911 | 0.867 | 0.851 | 0.705 | 0.878 | 0.776 | 0.629 | 0.877 | 0.654 |
| NCI-H1734 | 0.306 | 0.324 | 0.249 | 0.31 | 0.35 | 0.408 | 0.411 | 0.365 | 0.417 | 0.423 | 0.502 | 0.473 | 0.404 | 0.453 | 0.46 | 0.501 | 0.48 | 0.401 | 0.378 | 0.449 |
| NCI-H1755 | 0.583 | 0.639 | 0.476 | 0.547 | 0.487 | 0.655 | 0.63 | 0.573 | 0.647 | 0.593 | 0.666 | 0.579 | 0.553 | 0.545 | 0.453 | 0.777 | 0.715 | 0.679 | 0.6 | 0.554 |
| NCI-H1792 | 0.154 | 0.129 | 0.162 | 0.129 | 0.0809 | 0.646 | 0.489 | 0.427 | 0.421 | 0.362 | 0.196 | 0.251 | 0.215 | 0.164 | 0.16 | 0.865 | 0.769 | 0.724 | 0.583 | 0.644 |
| NCI-H1915 | 0.384 | 0.372 | 0.34 | 0.349 | 0.432 | 0.531 | 0.516 | 0.45 | 0.512 | 0.49 | 0.233 | 0.197 | 0.204 | 0.228 | 0.191 | 0.849 | 0.784 | 0.798 | 0.711 | 0.753 |

Source: the supplement of paper PMC10307832
